According to ChEMBL document CHEMBL3751711, “Design and synthesis of novel Y-shaped barbituric acid derivatives as PPARγ activators” (Eur J Med Chem, 2016):

Biological target: T1, Peroxisome proliferator-activated receptor gamma (Homo sapiens, UniProt P37231)
T1 sequence (P37231 whole entry): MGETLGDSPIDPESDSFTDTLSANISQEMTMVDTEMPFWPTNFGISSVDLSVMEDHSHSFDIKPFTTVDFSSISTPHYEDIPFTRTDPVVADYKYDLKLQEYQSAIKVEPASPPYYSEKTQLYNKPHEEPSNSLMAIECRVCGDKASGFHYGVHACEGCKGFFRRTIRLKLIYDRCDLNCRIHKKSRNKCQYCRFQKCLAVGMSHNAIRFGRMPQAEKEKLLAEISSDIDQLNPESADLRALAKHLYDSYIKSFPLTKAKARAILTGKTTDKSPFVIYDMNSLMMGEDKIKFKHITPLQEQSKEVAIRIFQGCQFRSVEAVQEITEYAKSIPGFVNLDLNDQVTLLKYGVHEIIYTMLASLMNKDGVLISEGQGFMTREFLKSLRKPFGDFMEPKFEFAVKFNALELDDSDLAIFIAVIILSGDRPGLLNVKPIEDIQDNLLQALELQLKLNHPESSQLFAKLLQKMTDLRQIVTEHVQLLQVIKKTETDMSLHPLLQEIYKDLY
Assay: Binding affinity to GST-tagged human PPAR-gamma receptor by FRET assay; call rule not given here

Structure (SMILES)	IC50	IC50 (read-out: IC50)
O=C1NC(=O)C(=Cc2ccc(N(CCOCc3ccccc3)CCOC(c3ccccc3)(c3ccccc3)c3ccccc3)cc2)C(=O)N1	Not Active	–
O=C1NC(=O)C(=Cc2ccc(N(CCO)CCOC(c3ccccc3)(c3ccccc3)c3ccccc3)cc2)C(=O)N1	–	22.2 µM
O=C1NC(=O)C(=Cc2ccc(N(CCOc3ccccn3)CCOc3ccccn3)cc2)C(=O)N1	Not Active	–
COc1ccc(COCCN(CCOCc2ccccc2)c2ccc(C=C3C(=O)NC(=O)NC3=O)cc2)cc1	–	191 µM
N#Cc1ccc(OCCN(CCOc2ccc(C#N)cc2)c2ccc(C=C3C(=O)NC(=O)NC3=O)cc2)cc1	–	6.5 µM
O=C1NC(=O)C(=Cc2ccc(N(CCOc3ccc([N+](=O)[O-])cc3)CCOc3ccc([N+](=O)[O-])cc3)cc2)C(=O)N1	–	10.1 µM
COc1ccc(COCCN(CCOCc2ccc(OC)cc2)c2ccc(C=C3C(=O)NC(=O)NC3=O)cc2)cc1	–	59.1 µM
CC(=O)OCCN(CCOC(C)=O)c1ccc(C=C2C(=O)NC(=O)NC2=O)cc1	Not Active	–
COc1ccc(COCCN(CCOc2ccccn2)c2ccc(C=C3C(=O)NC(=O)NC3=O)cc2)cc1	–	84 µM
COc1ccc(COCCN(CCOCc2ccc(Br)cc2)c2ccc(C=C3C(=O)NC(=O)NC3=O)cc2)cc1	Not Active	–
COc1ccc(COCCN(CCOC(C)=O)c2ccc(C=C3C(=O)NC(=O)NC3=O)cc2)cc1	Not Active	–
O=C1NC(=O)C(=Cc2ccc(N(CCOCc3ccc(F)cc3)CCOCc3ccc(F)cc3)cc2)C(=O)N1	Not Active	–
CC(=O)OCCN(CCOCc1ccccc1)c1ccc(C=C2C(=O)NC(=O)NC2=O)cc1	–	> 200 µM
O=C1NC(=O)C(=Cc2ccc(N(CCOCc3ccccc3)CCOCc3ccccc3)cc2)C(=O)N1	–	78.4 µM
O=C1NC(=O)C(=Cc2ccc(OCc3ccccc3)cc2)C(=O)N1	–	0.1 µM
